{"source": "patent US6776984B1", "about": "“Induced regeneration and repair of damaged neurons and nerve axon myelin” (priority 1999, dated 2004)", "test_system": "B6SJL-TgN(SOD1-G93A)1 Gur strain mice", "assay": "Transgenic mouse model of familial amyotrophic lateral sclerosis (limb paralysis, survival)", "assay_type": "in vivo", "excerpt": "B6SJL-TgN(SOD1-G93A)1 Gur strain mice were obtained from. The Jackson Laboratory, Bar Harbor, Me. The transgene in these mice carries a high copy number of a mutant allele human SOD1 containing the Gly93 →Ala (G93A) substitution (often referred to as G1H). Mice progressively become paralyzed in one or more limbs, with paralysis due to loss of motor neurons from the spinal cord. The mice are generally described in Gurney M E, Pu H, Chiu A Y, Dal Canto M C, Polchow C Y, Alexander D D, Caliendo J, Hentati A, Kwon Y W, Deng H X, Chen W, Zhai P, Sufit R L, Siddique T: Motor neuron degeneration in mice that express a human Cu,Zn superoxide dismutase mutation. Science 264:1772-1775 (1994), and use of these mice as a model of familial amyotrophic lateral sclerosis is described in Chiu A Y, Zhai P, Dal Canto M C, Peters T M, Kwon Y W, Prattis S M, Gurney M E: Age-dependent penetrance of disease in a transgenic mouse model of familial amyotrophic lateral sclerosis. Mol Cell Neurosci 6:349-362 (1995).\nAt 105 days following birth, mouse A began manifesting objective symptoms of limb paralysis. A protocol as described in Table 1 was followed.\nThe thrombopoietin was obtained from Rand D. Systems, Inc. (Minneapolis, Minn.) as carrier-free recombinant thrombopoietin and the thryrotropin was obtained from Ferring Pharmaceuticals; both were administered by intraperitoneal (i.p.) injection. Synthroid®, a form of levothyroxine, was obtained from Flint Pharmaceuticals in 100 μg tablets.\nA litter mate of mouse A, referred to as mouse B, was administered a protocol as described in Table 2, with administration commencing prior to the onset of any objective symptoms.\nA B6SJL-TgN(SOD1-G93A)1Gur strain mouse as described in Example 1 was obtained, referred to as mouse C. Mouse C was administered a protocol as described in Table 3, with administration commencing prior to the onset of any objective symptoms.", "key": {"[1]": {"settings": "mouse A, Table 1 protocol, thrombopoietin i.p. days 107, 110, 113"}}, "data": [{"substance": "thrombopoietin", "values": [{"measurement": "objective symptoms observed at day 111", "setting": "mouse A, symptomatic from day 105, after thrombopoietin 0.5 cc of 1 μg/cc i.p. on days 107 and 110", "result": "marked improvement"}, {"measurement": "objective symptoms observed on day 124", "setting": "mouse A, Table 1 protocol", "result": "increasing front limb weakness"}, {"measurement": "day of death", "setting": "mouse A, Table 1 protocol (thrombopoietin, thyrotropin releasing hormone, Synthroid) started after symptom onset", "result": 126, "unit": "days"}, {"measurement": "objective symptoms observed on day 122", "setting": "mouse A, Table 1 protocol, Synthroid in drinking water from day 121", "result": "marked improvement in front limbs"}, {"measurement": "objective symptoms observed by day 118", "setting": "mouse A, Table 1 protocol, after thrombopoietin plus thyrotropin releasing hormone i.p. on day 117", "result": "decreased weakness"}, {"measurement": "objective symptoms observed at day 113", "setting": "[1]", "result": "shaking resumed"}, {"measurement": "objective symptoms observed by day 115", "setting": "[1]", "result": "marked hind limb weakness"}, {"measurement": "objective symptoms observed on day 120", "setting": "mouse A, Table 1 protocol, thrombopoietin i.p. through day 119", "result": "increased mobility"}, {"measurement": "day of death", "setting": "mouse B, Table 2 protocol", "result": 132, "unit": "days"}, {"measurement": "delay of onset of objective signs versus litter mate mouse A", "setting": "mouse B, Table 2 protocol", "result": 16, "unit": "days"}, {"measurement": "objective symptoms observed at day 129", "setting": "mouse B, Table 2 protocol", "result": "posterior limb paralysis"}, {"measurement": "day of first objective signs (slight posterior weakness)", "setting": "mouse B, Table 2 protocol, thrombopoietin i.p. from day 87, Synthroid in drinking water from day 105, started before symptoms", "result": 121, "unit": "days"}, {"measurement": "day through which no objective signs of illness were observed", "setting": "mouse C, Table 3 protocol, thrombopoietin i.p. days 80-88, Synthroid in drinking water from day 92, expected onset 91±14 days", "result": "> 110", "unit": "days"}]}]}
